The record followed here is patent US8686115B2, “Compositions and methods for quantitatively monitoring lipids” (The Board of Trustees of the University of Illinois, priority 2009, dated 2014).

Read-outs that look alike come from different tables or passages of the source.

One experiment has as its target T1, PLCδ-PH (PLCδ PH domain) (Homo sapiens, UniProt P51178).
T1 sequence (P51178 21-130 limits assumed): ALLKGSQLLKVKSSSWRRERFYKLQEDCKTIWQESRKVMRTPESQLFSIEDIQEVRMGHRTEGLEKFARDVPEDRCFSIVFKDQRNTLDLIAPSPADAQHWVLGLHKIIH
In words: SPR equilibrium binding of PLCδ-PH to phosphoinositide-containing LUVs. The method, then: With respect to FIG. […] The proteins were incubated with a given concentration of IP3 for 5 minutes before injecting into the SPR instrument. Kinetic SPR measurements were performed in 20 mM Tris-HCL, pH 7.4, containing 0.16 KCl. […] A lower concentration of DAN-eENTH was used than that of PLCδ PH because the former has much higher affinity that the latter.
LUVs were prepared by extrusion using a 100 nm-pore membrane. GUVs were prepared by electroformation. The lipid mixture were prepared in chloroform/methanol (3:1) at a total concentration of 0.4 mg/ml, then the lipid solution was spread onto the indium-tin oxide electrode surface and the lipid was dried under vacuum to form a uniform lipid film. Vesicles were grown in a sucrose solution (350 mM) while an electric field (3V, 20 Hz frequency) was applied for 5 hour at room temperature. After 1 to […] of sucrose-loaded GUV solution was added into a well glued onto a coverslip that was placed on the microscope stage. The well contained […] of 20 mM Tris-HCl buffer, pH 7.4, with 0.16 M KCl solution. The diameter of GUVs ranged from 5 to 30 μm.

For experiment [1], the target named is T2, epsin 1 ENTH domain (SEQ ID NO: 1) variant C96A (Homo sapiens, UniProt Q9Y6I3, C96A).
T2 construct: The Epsin1 ENTH domain (1-158 amino acids) was subcloned; GST (C, cleaved yes); made in house; host or cells: E. coli BL21 RIL codon plus
T2 sequence (Q9Y6I3 1-158 C96A): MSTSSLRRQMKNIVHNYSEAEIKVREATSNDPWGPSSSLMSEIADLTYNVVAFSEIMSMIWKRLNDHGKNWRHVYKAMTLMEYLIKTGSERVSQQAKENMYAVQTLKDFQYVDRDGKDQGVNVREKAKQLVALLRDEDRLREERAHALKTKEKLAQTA
In words: SPR equilibrium binding of epsin1 ENTH C96A to phosphoinositide-containing LUVs. The source says: (§1) The ENTH domain was engineered to introduce a single labeling site (M10C) on the membrane binding surface while removing an endogenous Cys (C96A). We also performed the S4W mutation to suppress its residual affinity for another lipid, phosphatidylinositol-3,4,5-trisphosphate (PtdIns(3,4,5)P3) (PtdIns(4,5)P2/PtdIns(3,4,5)P3=4 for wild type and >10 for the mutant) and to enhance the overall affinity for PtdIns(4,5)P2-containing membranes (ca. 4-fold) (Table 1).
(§2) With respect to FIG. 1, an L1 sensor chip was coated with POPC/POPS/PtdIns(4,5)P2 (77:20:3) LUVs. The proteins were incubated with a given concentration of IP3 for 5 minutes before injecting into the SPR instrument. Kinetic SPR measurements were performed in 20 mM Tris-HCL, pH 7.4, containing 0.16 KCl. […] A lower concentration of DAN-eENTH was used than that of PLCδ PH because the former has much higher affinity that the latter.
(§3) All mutations (S4W, M10C, and C96A) were performed by polymerase chain reaction mutagenesis and verified by DNA sequencing. eENTH may comprise the following sequence:
E. coli BL21 RIL codon plus (Stratagene) cells were used for protein expression. Cells were grown in Luria broth media containing 100 μg/ml of ampicillin at 37° C. 0.1 mM of Isopropyl β-D-1-thiogalactopyranoside was added to induce over-expression of recombinant proteins when the OD600 reached 0.5-0.8 and cells were grown for additional 6 to 10 hours at 25° C. Cells were harvested by centrifugation and cell pellets were resuspended in 50 mM Tris-HCl buffer (pH 7.4) containing 160 mM KCl, 1 mM phenylmethanesulphonylfluoride, and 5 mM of dithiothreitol (DTT). Cells were lysed by sonication and the lysate was collected by centrifugation at 4° C. […] Purity and the concentration of the recombinant proteins were determined by sodium dodecylsulfate-polyacrylamide gel electrophoresis and bicinchoninic acid assay, respectively. The DAN labeling yield of eENTH, which was calculated as the molar ratio of DAN (determined spectrophotometrically at 391 nm using its extinction coefficient of 20,000 cm^−1 M^−1) to protein, was typically 60-70%. […]

In experiment [2] the target is T3, DAN-eENTH: epsin 1 ENTH domain variant M10C/C96A/S4W, SEQ ID NO: 2, labeled with DAN at C10 (Homo sapiens, UniProt Q9Y6I3, C96A/M10C/S4W).
T3 construct: The Epsin1 ENTH domain (1-158 amino acids) was subcloned; GST (C, cleaved yes); made in house; host or cells: E. coli BL21 RIL codon plus
T3 sequence (Q9Y6I3 1-158 S4W/M10C/C96A): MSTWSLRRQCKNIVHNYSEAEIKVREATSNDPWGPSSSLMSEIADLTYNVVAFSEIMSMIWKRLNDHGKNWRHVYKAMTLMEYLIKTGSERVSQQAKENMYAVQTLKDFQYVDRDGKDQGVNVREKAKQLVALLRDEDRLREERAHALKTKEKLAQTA
In words: SPR equilibrium binding of DAN-eENTH to phosphoinositide-containing LUVs. The settings on record: SPR.
Description: Provided herein is an ENTH domain of epsin1, which is linked to 2-dimethylamino-6-acyl-naphthalene (DAN). The ENTH domain contains 3 mutations, which are substitutions: M10C, C96A, and S4W. See SEQ ID NO:2. This DAN-eENTH (M10C, C96A, S4W) is an exceptional, high-affinity phosphatidylinositol-4,5-bisphosphate (PtdIns(4,5)P2)-binding protein.
as §1, §2, §3
(§4) E. coli BL21 RIL codon plus (Stratagene) cells were used for protein expression. Cells were grown in Luria broth media containing 100 μg/ml of ampicillin at 37° C. 0.1 mM of Isopropyl β-D-1-thiogalactopyranoside was added to induce over-expression of recombinant proteins when the OD600 reached 0.5-0.8 and cells were grown for additional 6 to 10 hours at 25° C. Cells were harvested by centrifugation and cell pellets were resuspended in 50 mM Tris-HCl buffer (pH 7.4) containing 160 mM KCl, 1 mM phenylmethanesulphonylfluoride, and 5 mM of dithiothreitol (DTT). Cells were lysed by sonication and the lysate was collected by centrifugation at 4° C. The GST-affinity resin (GenScript) for GST-tagged proteins or nickel-nitrilotriacetic acid resin (Qiagen, Valencia, Calif.) for His6-tagged proteins was added into the cell lysate and the mixture was gently shaken for 30 minutes at 4° C. The mixture was applied to a column and the column was washed once with 50 mM Tris-HCl buffer (pH 7.4) containing 160 mM KCl and 5 mM of DTT to reduce thiol group, and washed several times with the same buffer without DTT to remove DTT. For DAN labeling, 100 μg of acrylodan was added to the column at this stage and incubated 16 hours at 4° C. The excess acrylodan was removed by washing the column with the buffer several times. Thrombin (Invitrogen) was added to column to remove the GST tag and the mixture was incubated at 4° C. for 10 hours. The labeled protein was eluted from the column by and the collected fractions were applied to ion exchange column. Purity and the concentration of the recombinant proteins were determined by sodium dodecylsulfate-polyacrylamide gel electrophoresis and bicinchoninic acid assay, respectively. The DAN labeling yield of eENTH, which was calculated as the molar ratio of DAN (determined spectrophotometrically at 391 nm using its extinction coefficient of 20,000 cm^−1 M^−1) to protein, was typically 60-70%.
LUVs were prepared by extrusion using a 100 nm-pore membrane. GUVs were prepared by electroformation. […]

Experiment [3] deals with T4, epsin 1 ENTH domain, wild type, SEQ ID NO: 1 (Homo sapiens, UniProt Q9Y6I3).
T4 construct: The Epsin1 ENTH domain (1-158 amino acids) was subcloned; GST (C, cleaved yes); made in house; host or cells: E. coli BL21 RIL codon plus
T4 sequence (Q9Y6I3 1-158): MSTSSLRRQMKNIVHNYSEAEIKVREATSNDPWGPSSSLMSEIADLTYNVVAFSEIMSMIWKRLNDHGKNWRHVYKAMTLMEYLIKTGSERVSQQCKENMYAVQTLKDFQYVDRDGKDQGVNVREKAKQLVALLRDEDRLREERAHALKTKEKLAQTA
In words: SPR equilibrium binding of epsin1 ENTH domain (wild type) to phosphoinositide-containing LUVs. The settings on record: SPR.
Description: as §1, §2
The Epsin1 ENTH domain (1-158 amino acids) was subcloned into the pGEX4T-1 vector and expressed as a […] glutathione S-transferase (GST)-tagged protein. The ENTH domain amino acid sequence is as follows:
as §4, with “Thrombin (Invitrogen) was added to column to remove the GST tag and the mixture was incubated at 4° C. for 10 hours. The labeled protein was eluted from the column by and the collected fractions were applied to ion exchange column.” left out, “60-70%. […]” for “60-70%.”

Experiment [4] concerns NIH 3T3 cells. Nature of the experiment: Change of plasma membrane [PtdIns(4,5)P2]s on stimulation, quantified with DAN-eENTH. In kind it is cell-based. Conditions: 1 μM insulin. How it is done: (§5) DAN-eENTH was delivered into NIH 3T3 cells by microinjection for live cell imaging and determined cellular [PtdIns(4,5)P2] by the ratiometric analysis. The green channel (FIG. 10a) representing both PtdIns(4,5)P2-bound and free DAN-eENTH illustrates that the sensor is successfully loaded into cells and randomly distributed in the cytosol, the nucleus, and the plasma membrane. […] When [PtdIns(4,5)P2]s in the PM was determined in a time-dependent manner by either single-channel 9FB) or ratiometric (FB/FG) analysis using the calibration curve (FIG. 2c or 2d), dramatic local heterogeneity of [PtdIns(4,5)P2]s was clearly visible at a given time ((FIG. 9c). […] In FIG. 7, the different angles represent different locations in the plasma membrane. […] That is, PtdIns(4,5)P2 can be locally enriched, but only transiently, in the quiescent cells. […] Also, the change in [PtdIns(4,5)P2]s was monitored in response to physiological stimuli, ATP and insulin. […]
(§6) NIH 3T3 cells were seeded into 8-well plates and grown at 37° C. in a humidified atmosphere of 95% air and 5% CO2 in Dulbecco's modified Eagle's medium (DMEM) (Invitrogen) supplemented with 10% (v/v) fatal bovine serum (Invitrogen). […] Thus, the cellular [PtdIns(4,5)P2] was determined from the observed (FB/FG) values using the in vitro calibration curve determined using POPC/POPS/PtdIns(4,5)P2 GUVs.

Experiment [5] deals with NIH 3T3 cells. In words: Cellular distribution of microinjected sensor in live cells. In kind it is cell-based. The settings on record: FIG. 6. How it is done:
as §5, §6

The nature of experiment [6]: Equilibrium SPR binding to other phosphoinositide vesicles. The settings on record: POPC/POPS/phosphoinositide (77:20:3) vesicles; no significant SPR response signal with injection of 1 μM protein.
The mark [7] stands for this setting: POPC/POPS/PtdIns(3,4)P2 (77:20:3) LUVs, read-out: Kd for PtdIns(3,4)P2.
Setting [8] is: POPC/POPS/PtdIns(3,4,5)P3 (77:20:3) LUVs, read-out: Kd for PtdIns(3,4,5)P3.

In the case of `CCCCCCCCCCCCCCCC(=O)OC[C@H](COP(=O)(O)O[C@H]1[C@H](O)[C@@H](O)[C@H](OP(=O)(O)O)[C@@H](OP(=O)(O)O)[C@H]1O)OC(=O)CCCCCCCCCCCCCCC` [PtdIns(3,4)P2], the dissociation constant Kd was 350 nM at PLCδ-PH (PLCδ PH domain) (setting [7]), 190 nM in experiment [1] (setting [7]), 50 nM in experiment [2] (setting [7]) and 180 nM in experiment [3] (setting [7]).

Consider `CCCCCCCCCCCCCCCC(=O)OC[C@H](COP(=O)(O)O[C@H]1[C@H](O)[C@@H](OP(=O)(O)O)[C@H](OP(=O)(O)O)[C@@H](OP(=O)(O)O)[C@H]1O)OC(=O)CCCCCCCCCCCCCCC` [PtdIns(3,4,5)P3, phosphatidylinositol-3,4,5-trisphosphate], for which the Kd on PLCδ-PH (PLCδ PH domain) (setting [8]) is 480 nM; in experiment [1] (setting [8]) it was 200 nM; in experiment [2] (setting [8]), 44 nM; in experiment [3] (setting [8]), 210 nM.

Consider insulin, for which the “reduction in spatially averaged [PtdIns(4,5)P2]s in the plasma membrane” value with NIH 3T3 cells [4] is around 10%.

B1: DAN-eENTH: eENTH (M10C, C96A, S4W) linked via C10 to 2-dimethylamino-6-acyl-naphthalene (DAN); PtdIns(4,5)P2 sensor (conjugate)
chain: MSTWSLRRQCKNIVHNYSEAEIKVREATSNDPWGPSSSLMSEIADLTYNVVAFSEIMSMIWKRLNDHGKNWRHVYKAMTLMEYLIKTGSERVSQQAKENMYAVQTLKDFQYVDRDGKDQGVNVREKAKQLVALLRDEDRLREERAHALKTKEKLAQTA
modifications: DAN fluorophore on Cys10; Modified ENTH domain of Epsin 1.
notes: eENTH (M10C, C96A, S4W) linked via C10 to 2-dimethylamino-6-acyl-naphthalene (DAN); PtdIns(4,5)P2 sensor
As for B1, the “cellular localization after microinjection” value in the experiment on NIH 3T3 cells [5] is “mainly enriched in the plasma membrane”. Moreover, the Kd in experiment [6] is above 1000 nM.

B2: C96A/S4W (eENTH): engineered ENTH domain of epsin 1 with substitutions M10C, C96A, S4W, SEQ ID NO:2 (protein)
chain: MSTWSLRRQCKNIVHNYSEAEIKVREATSNDPWGPSSSLMSEIADLTYNVVAFSEIMSMIWKRLNDHGKNWRHVYKAMTLMEYLIKTGSERVSQQAKENMYAVQTLKDFQYVDRDGKDQGVNVREKAKQLVALLRDEDRLREERAHALKTKEKLAQTA
modifications: Modified ENTH domain of Epsin 1.
With B2, the Kd in experiment [6] is above 1000 nM.

B3: Wild Type: ENTH domain of epsin 1, amino acids 1-158, SEQ ID NO:1 (protein)
chain: MSTSSLRRQMKNIVHNYSEAEIKVREATSNDPWGPSSSLMSEIADLTYNVVAFSEIMSMIWKRLNDHGKNWRHVYKAMTLMEYLIKTGSERVSQQCKENMYAVQTLKDFQYVDRDGKDQGVNVREKAKQLVALLRDEDRLREERAHALKTKEKLAQTA
modifications: ENTH domain of Epsin 1.
In experiment [6], B3 came in with a Kd above 1000 nM.
